Five molecules from patent publication US20230406803A1, “TROPOLONE DERIVATIVES AND TAUTOMERS THEREOF FOR IRON REGULATION IN ANIMALS” (Kinesid Therapeutics, Inc, priority 2020, published 2023) can be followed below.

Data set [1] deals with mouse model of turpentine oil (TO)-induced anemia of inflammation. Nature of the data set: Turpentine oil induced anemia of inflammation. In kind it is in vivo. To be noted: PO, hinokitiol as comparator in the respective studies. On the procedure:
Assay 3: Turpentine Oil Induced Anemia of Inflammation This is a model of anemia of inflammation by turpentine oil injection in combination with phlebotomy. Conditioning: Mice receive 3 doses of turpentine oil subcutaneously within 2 weeks. Mice are anesthetized and then administered 0.1 mL/20 g body weight of turpentine oil (TO) via subcutaneous injection in the scapular fat area using syringe and 27 G needle on Day 1, 7, and 14. On day 14, after the final injection of turpentine oil, a controlled 10% hemorrhage (approximately 200 uL) is accomplished via anesthetized orbital sinus bleed to increase the magnitude of anemia. The bleeding uses an orbital blood sampling technique, 200 uL capillary bleeding device (essentially a vacutainer tube with a glass capillary tube attached). Clean gauze lightly pre-soaked with sterile saline is held over the eye immediately following hemorrhage to promote hemostasis. Treatment: On day 15, 16 hours post last dose of turpentine oil, sham group and TO plus bleeding group are terminated. These two groups are used as part of control. On day 15, vehicle group and compound treatment groups receive proper vehicle or compounds at a specified dose accordingly, treatments can be oral once a day or oral twice a day. The treatment continues for 7 days, and then is terminated on day 21. On day 21, 3 hours post last treatment of test articles, the vehicle and treatment group are terminated. […] Depth of anesthesia is monitored by toe pinch method. […] Data analysis: The iron mobilization impact of compounds is assessed based on the serum iron level, transferrin saturation and TIBC; the ability of test article to restore normal iron homeostasis and metabolism, and subsequent rescue of anemia, is assessed by comparing the hemoglobin and hematocrit levels of test article treated groups with vehicle treated group. Test articles were evaluated in the described mouse model of turpentine oil (TO)-induced anemia of inflammation (A of I). […]

Data set [2] is described as follows: Human liver microsomal stability assay. To be noted: human, microsomes. In kind it is in vitro ADME. From the text: (§1) Further examples of useful assays include metabolic stability assays, such as but not limited to e.g., liver microsomal clearance assays which provide measurement such as, but not limited to e.g., liver microsomal clearance half-life (t1/2), liver microsomal intrinsic clearance (CLint), and the like. Such measurements are useful in assessing various characteristics of a subject compound, such as e.g., the availability of an intact compound to provide a pharmacological effect. A compound having a longer microsomal clearance half-life (t1/2), e.g., than a reference compound, will provide better exposure of the intact compound and greater availability to produce the relevant pharmacological effect. A compound having a less microsomal clearance, e.g., as measured by liver microsomal intrinsic clearance (CLint), will similarly result in greater exposure of the intact compound available for an increase in the relevant pharmacological effect, e.g., as compared to that of a reference compound with a higher liver microsomal intrinsic clearance (CLint). Other useful assays include in vitro hepatocyte metabolic stability assays.
(§2) Such assessments included human and mouse liver microsomal stability assays as well as 6-hour mouse PK studies.
(In general: Liver microsomes are vesicles of endoplasmic reticulum, rich in cytochrome P450 enzymes.)

A short description of data set [3]: Mouse liver microsomal stability assay. In kind it is in vitro ADME. To be noted: mouse, microsomes.
Description: as §1, §2

The nature of the next data set: Mouse 6-hour PK study. Particulars: mouse, in vivo.

The structures appear in SMILES notation. Some results are limits rather than exact numbers.

As a reminder, the half-life is how long it takes for the measured level to halve. A high value points to slow loss. For orientation: microsomal CLint means the rate of metabolic loss divided by the concentration. Lower therefore signals greater metabolic stability. In general, AUC(0-t) refers to the area under the concentration-time curve up to a stated or last time point. As a reminder, the Cmax is the highest concentration seen after dosing.

Consider `O=c1ccccc([C@@H]2CCCO2)c1O` (single isomer, unassigned) [Ex. 42], for which, in data set [1], the “levels of Hgb compared with hinokitiol” value is given as “comparable or higher levels of Hgb than hinokitiol”. For the same molecule, in data set [2], the “clearance half-life (t1/2) and intrinsic clearance (CLint) as compared to hinokitiol” value (“clearance half-life … compared to hinokitiol” for short) was “longer clearance half-life (t1/2) and lower intrinsic clearance (CLint), or both as compared to hinokitiol”; the half-life was in the range of 0.833 to 1.67 h; the microsomal CLint was less than 25 µL/min/mg. In data set [3], the “clearance half-life … compared to hinokitiol” value is “longer clearance half-life (t1/2) and lower intrinsic clearance (CLint), or both as compared to hinokitiol”; the half-life was in the range of 0.417 to 0.833 h; the intrinsic metabolic clearance (microsomal CLint) was 25 to 50 µL/min/mg. Moreover, in “Mouse 6-hour PK study”, the AUC(0-t) was in the range of 500 to 1500 ng·h/mL, the Cmax was in the range of 1500 to 5000 ng/mL, the half-life was less than 1.25 h and the “mouse 6-hour PK properties as compared to hinokitiol” value was “one or more improved mouse 6-hour PK properties as compared to hinokitiol”.
Regarding `CC(C)c1ccc(F)c(=O)c(O)c1` [Ex. 1, 7-fluoro-2-hydroxy-4-isopropylcyclohepta-2,4,6-trien-1-one], the “levels of Hgb compared with hinokitiol” value in data set [1] is listed as “comparable or higher levels of Hgb than hinokitiol”. In data set [2], the “clearance half-life … compared to hinokitiol” value was “longer clearance half-life (t1/2) and lower intrinsic clearance (CLint), or both as compared to hinokitiol”; the half-life lay in the range of 0.417 to 0.833 h; the microsomal CLint was 25 to 50 µL/min/mg. In data set [3], the “clearance half-life … compared to hinokitiol” value was “longer clearance half-life (t1/2) and lower intrinsic clearance (CLint), or both as compared to hinokitiol”; the half-life is more than 2.5 h; the microsomal CLint was less than 25 µL/min/mg. Also, in the data set “Mouse 6-hour PK study”, the exposure AUC(0-t) is 5000 to 20000 ng·h/mL, the Cmax was 5000 to 20000 ng/mL, the half-life lay in the range of 1.25 to 4.99 h and the “mouse 6-hour PK properties as compared to hinokitiol” value is “one or more improved mouse 6-hour PK properties as compared to hinokitiol”.
Consider `O=c1ccccc(OC2CCC2)c1O` [Ex. 56, 3-cyclobutoxy-2-hydroxycyclohepta-2,4,6-trien-1-one], for which, in data set [2], the “clearance half-life … compared to hinokitiol” value is “longer clearance half-life (t1/2) and lower intrinsic clearance (CLint), or both as compared to hinokitiol”; the half-life lay in the range of 1.67 to 2.5 h; the microsomal CLint was less than 25 µL/min/mg. Besides, in data set [3], the “clearance half-life … compared to hinokitiol” value was “longer clearance half-life (t1/2) and lower intrinsic clearance (CLint), or both as compared to hinokitiol”; the half-life lay in the range of 0.417 to 0.833 h; the microsomal CLint was in the range of 25 to 50 µL/min/mg. Besides, in the data set “Mouse 6-hour PK study”, the area under the curve AUC(0-t) fell in the range of 1500 to 5000 ng·h/mL, the Cmax fell in the range of 1500 to 5000 ng/mL, the half-life is less than 1.25 h and the “mouse 6-hour PK properties as compared to hinokitiol” value is reported as “one or more improved mouse 6-hour PK properties as compared to hinokitiol”.
For `CC(C)c1cccc(F)c(=O)c1O` [Ex. 4, 7-fluoro-2-hydroxy-3-isopropylcyclohepta-2,4,6-trien-1-one], in data set [2], the “clearance half-life … compared to hinokitiol” value is “longer clearance half-life (t1/2) and lower intrinsic clearance (CLint), or both as compared to hinokitiol”; the half-life was in the range of 0.417 to 0.833 h; the microsomal CLint was more than 50 µL/min/mg. Also, in data set [3], the “clearance half-life … compared to hinokitiol” value is “longer clearance half-life (t1/2) and lower intrinsic clearance (CLint), or both as compared to hinokitiol”; the half-life is 0.417 to 0.833 h; the microsomal CLint lay in the range of 25 to 50 µL/min/mg. In addition, in “Mouse 6-hour PK study”, the AUC(0-t) is more than 20000 ng·h/mL, the Cmax is 5000 to 20000 ng/mL, the half-life fell in the range of 1.25 to 4.99 h and the “mouse 6-hour PK properties as compared to hinokitiol” value is “one or more improved mouse 6-hour PK properties as compared to hinokitiol”.
For `Cc1cccc(F)c(=O)c1O` [Ex. 32, 7-fluoro-2-hydroxy-3-methylcyclohepta-2,4,6-trien-1-one], the “levels of Hgb compared with hinokitiol” value in data set [1] is recorded as “comparable or higher levels of Hgb than hinokitiol”. Further, in data set [2], the “clearance half-life … compared to hinokitiol” value was “longer clearance half-life (t1/2) and lower intrinsic clearance (CLint), or both as compared to hinokitiol”; the half-life is more than 2.5 h; the intrinsic clearance (microsomal CLint) was less than 25 µL/min/mg. Also, in data set [3], the “clearance half-life … compared to hinokitiol” value is “longer clearance half-life (t1/2) and lower intrinsic clearance (CLint), or both as compared to hinokitiol”; the half-life was more than 2.5 h; the microsomal CLint is less than 25 µL/min/mg. Besides, in “Mouse 6-hour PK study”, the AUC(0-t) was more than 20000 ng·h/mL, the peak concentration (Cmax) lay in the range of 5000 to 20000 ng/mL, the half-life is 1.25 to 4.99 h and the “mouse 6-hour PK properties as compared to hinokitiol” value is “one or more improved mouse 6-hour PK properties as compared to hinokitiol”.
